Assay in all cases: growth of human tumour cells (NCI), 48 h
Assay [1] deals with ACHN renal.
For assay [2], the system named is NCI-H226 lung.
Assay [3] concerns A549 NSCLC.
The subject of assay [4] is OVCAR-5 ovarian.
Assay [5] has as its system 786-0 renal.
Assay [6] relates to HT29 colon.
In assay [7] the test system is NCI-H460 lung.
The test system of assay [8] is COLO 205 colon.
The subject of assay [9] is MDA-MB-231 breast.

Several values for one entry are separate records, joined by “and”; a condition that tells them apart may be missing. Identical values can stand only once.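 A five-concentration, 48-hour dose response in 96-well plates underlies each endpoint, interpolated linearly between surrounding concentrations. GI50 marks 50% less growth. At the TGI there is no net growth.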 Some results are limits rather than exact numbers.

In the case of `COc1ccc(/C=C/c2nc(=S)[nH][nH]2)cc1`, the TGI in [1], in assay [2], in assay [3], in assay [4], in assay [5] and in assay [6] was more than 100 µM each time. The compound further yielded a TGI in assay [7] of more than 100 µM.
With `NS(=O)(=O)c1ccc(NC(=O)CC(=O)Nc2ccc(S(N)(=O)=O)cc2)cc1`, the TGI in assay [1], in assay [2], in assay [3], in assay [8], in assay [4] and in [5] was more than 100 µM throughout. For the same compound, the TGI in [6] was more than 100 µM.
As for `Fc1ccc(F)c(C2SCc3nc4ccccc4n32)c1` (centres undefined), the TGI in [1], in assay [2], in [3], in [8], in assay [4] and in [5] was more than 100 µM each time. In addition, the TGI in assay [6] and in assay [7] was more than 100 µM throughout.
Regarding `CC(=O)OCC(OC(C)=O)C(OC(C)=O)C(OC(C)=O)C(=O)CNn1c(-c2ccccc2)nc2ccc(Br)cc2c1=O` (centres undefined), the TGI in [1], in [2], in [3], in [8], in assay [4] and in assay [5] was more than 100 µM throughout. The TGI in [6] and in assay [7] was more than 100 µM throughout.
Consider `Cc1c(C2Cc3ccccc3N2C(=O)/C=C\C(=O)O)c2ccccc2n1C` (centres undefined), for which the TGI in assay [1] is more than 100 µM; in assay [2], 57.6 µM; in assay [3], more than 100 µM; in assay [8], 32.1 µM; in [4] it was more than 100 µM; in assay [5] it was 49.3 µM. Also, the TGI in assay [6] and in assay [7] was more than 100 µM in each case.
`CCc1ccc(/C(C)=N/NC(N)=S)cc1`: the TGI was more than 100 µM in [3]; more than 100 µM in assay [8]; 72.3 µM in assay [4]; more than 100 µM in assay [5]; more than 100 µM in assay [6].
For the compound `CCOC(=O)CC1=NC(=Nc2cc(Cl)ccc2Cl)SC1`, the TGI in [1], in assay [2], in assay [3], in assay [8], in assay [4] and in assay [5] was more than 100 µM each time. In addition, the TGI in assay [6] and in [7] was more than 100 µM in each case.
Turning to `CCc1ccccc1-n1c2nc(=O)n(C)c(=O)c-2nc2ccccc21`, the TGI in [1] came out at 16.3 µM; in [2], 36.4 µM; in assay [3], 27.6 µM; in assay [8] it was 12.5 µM; in assay [4] it was 34.3 µM; in assay [5] it was 30.5 µM. Further, the results for the TGI in assay [6] and in [7] were 14.3 µM and 20.8 µM, respectively.
With `O=C(N=Nc1c(O)[nH]c2c(Cl)cc(Cl)cc12)c1ccncc1`, the TGI is more than 100 µM in [1]; more than 100 µM in assay [2]; more than 100 µM in [3]; more than 100 µM in assay [8]; 39.4 µM in [9]; more than 100 µM in assay [4]. Also, the TGI in assay [5] is 36.4 µM; in assay [6], 75.7 µM; in [7] it was more than 100 µM.
Take `COc1ccc2[nH]c(-c3cccc(N(C)C)c3)cc(=O)c2c1`: the TGI in assay [1] is more than 100 µM; in assay [3], more than 100 µM; in [9] it was more than 100 µM; in [4], more than 100 µM; in [5] it was more than 100 µM; in assay [6], 1.46 µM and 3.21 µM. The compound further displayed a TGI in [7] of more than 100 µM. Further, the GI50 in assay [2] was 0.581 µM; in [3] it was 4.46 µM; in [8], 0.379 µM; in [9] it was 2.1 µM; in assay [4] it was 0.784 µM; in assay [5], 0.539 µM. Moreover, the GI50 in assay [6] was 0.345 µM; in assay [7], 0.564 µM.
Take `CN(C)c1nc(N(C)C)n2nc(-c3ccccc3[N+](=O)[O-])nc2n1`: the TGI in assay [1], in [2], in assay [3], in [8], in [4] and in assay [5] was more than 100 µM in each case. The TGI in assay [6] and in assay [7] was more than 100 µM throughout.
On to `CC1=Nc2c([nH]c(=S)[nH]c2=O)NC(c2ccc(Cl)c(Cl)c2)C1` (centres undefined), for which the TGI in assay [1] is more than 100 µM; in [2], 48.8 µM; in [3], 47.5 µM; in assay [8], 32.7 µM; in [4] it was more than 100 µM; in assay [5] it was 32.5 µM. The TGI was 59.6 µM in assay [6] and more than 100 µM in [7].
In the case of `CCOC(=O)C1=C(NC(C)(C)C)OCC1=O`, the TGI in assay [1], in assay [2], in [3], in assay [8], in assay [4] and in assay [5] was more than 100 µM throughout. For the same compound, the TGI in assay [6] and in assay [7] was more than 100 µM in each case.
Regarding `CC(C)CC(CNC(Cc1ccc(Cl)cc1)C(N)=O)NC(=O)C(Cc1cnc[nH]1)NC(=O)CNC(=O)C(NC(=O)C(C)NC(=O)C(Cc1c[nH]c2ccccc12)NC(=O)C(CCC(=O)O)NC(=O)C(N)Cc1ccccc1)C(C)C` (centres undefined), the TGI in [1], in [3], in assay [8], in [5], in assay [6] and in assay [7] was more than 133 µM throughout.
For `O=C(O)c1ccc(N=Nc2cc(S(=O)(=O)O)c3cccnc3c2O)cc1`, the TGI in assay [1], in assay [2], in assay [3], in [8], in assay [4] and in assay [5] was more than 100 µM each time. For the same compound, the TGI in assay [6] and in assay [7] was more than 100 µM in each case.
On to `O=C(CCCNC(=O)OCc1ccccc1)OCc1ccc2c(c1)C(=O)c1ccccc1C2=O`, for which the TGI in assay [1] is more than 100 µM; in assay [2], 42.6 µM; in assay [3], more than 100 µM; in assay [8] it was more than 23 µM; in [4], more than 100 µM; in assay [5] it was more than 56.2 µM. Further, the TGI in assay [6] and in assay [7] was more than 100 µM each time.

For the origin of these results see PubChem BioAssay (NCI).
